From patent US8748464B2, “Use of SIRT1 activators or inhibitors to modulate an immune response” (The J. David Gladstone Institutes, priority 2008, dated 2014)

Tests used:
Jurkat T cells = assay: IL-2 protein ELISA in supernatant of α-CD3-stimulated Jurkat T cells infected with EF-1α-GFP or EF-1α-Tat-GFP viruses; assay type: cell-based, human; settings: 16 hrs
Method: Lentiviral vectors, which contained the heterologous elongation factor 1α (EF-1α) promoter driving Tat and GFP expression, were generated. High titer viral stocks were produced and used to infect Jurkat T cells. […] Infected cultures were stimulated with antibodies specific for the CD3 receptor and treated with increased concentrations of resveratrol (0.4 μM, 2 μM, and 10 μM), a known SIRT1 activator for 16 hrs. IL-2 protein was measured in the culture supernatant by ELISA assay. Following stimulation with α-CD3 antibody, IL-2 protein was superinduced ˜4-fold by wild type Tat (FIG. 8A). In cells expressing Tat, ˜2300 pg/ml of IL-2 protein was detected in response to α-CD3 treatment, whereas in control cells, only ˜600 pg/ml of IL-2 protein was induced.
The effects of small molecule of SIRT1 ([…]) on T cell hyperactivation in Tat-expressing cells were examined. Jurkat T cells were infected with EF-1α-GFP or EF-1α-Tat-GFP viruses (FIG. 8B). Infected cultures were stimulated with α-CD3 antibody and treated with SRT2183 (0.2, 1, and 5 μM) for 16 hrs.
FIGS. 8A and 8B. Resveratrol and small molecule activator of SIRT1 (SRT2183) suppresses T cell hyperactivation by Tat. (A) IL-2 protein levels measured by ELISA in the supernatant of infected cultures. 24 hrs after infection with EF1α-GFP and EF1α-Tat-GFP viruses, Jurkat T cells were stimulated with α-CD3 antibody in the presence of increased concentrations of resveratrol (0.4, 2, and 10 μM) for 16 hrs. (B) 24 hrs after infection with EF1α-GFP and EF1α-Tat-GFP viruses, Jurkat T cells were stimulated with α-CD3 antibody in the presence of increased concentrations of SRT2183 (0.2, 1, and 5 μM) for 16 hrs. IL-2 protein levels were measured by ELISA in the supernatant of infected cultures.

[1] = tested on: FLAG-FoxP3 in 293 T cells; assay: Western blot of FLAG-FoxP3 (wild type or mutant) or FLAG-AML1/Runx1 expression in 293 T cells; assay type: cell-based; settings: for expression of FLAG-AML1/Runx1 / FoxP3 protein expression: Ex-527 50 μM or TSA 400 nM, 16 hours; for FoxP3 protein expression: nicotinamide 5 mM
Method: To determine whether the three newly identified acetylated lysine residues regulate FoxP3 stability, mutants were generated in which each of three lysine residues was substituted to arginines (KR), a conservative mutation that preserves the positive charge of the residue.
To investigate the effect of SIRT1 inhibition and the three newly identified acetylation sites on FoxP3 protein stability, wild type and 3KR mutant FoxP3 protein expression was measured after treatment with cycloheximide (CHX), a general inhibitor of protein translation.
(B) Scheme of acetylated lysine residues identified by mass spectrometry using immunoprecipitated FLAG-FoxP3 protein. The murine protein is shown.

[2] = tested on: FLAG-FoxP3 in 293 T cells; assay: Immunoprecipitation/western blot of acetylated FLAG-FoxP3 or HA-AML1/Runx1 in 293 T cells cotransfected with p300; assay type: cell-based
Excerpt: FIGS. 10A-D. SIRT1 interacts with FoxP3 and inhibition of SIRT1 deacetylase activity increases acetylation of FoxP3. (A) Communoprecipitation/western blot analysis of FLAG-tagged FoxP3 and HA-tagged SIRT1 after transfection of corresponding expression vectors or empty vector controls into 293T cells. (B) Communoprecipitation assay of SIRT1 and FoxP3 deletion mutants. A schematic summary of the binding of FoxP3 mutants to SIRT1 is shown. The forkhead box (FH) indicates the DNA binding domain ZnF, zinc finger domain; LZ, leucine zipper. […] An expression vector for the p300 acetyltransferase was cotransfected with FoxP3. (D) The same experiment as in (C) using HA-AML1/Runx1. Immunoprecipitations were performed with either anti-FLAG antibody coupled to agarose (α-FLAG agarose) (C) or anti-hemagglutinin antibody coupled to agarose (α-HA agarose) (D) and western blotting with rabbit polyclonal antibody to acetyl-lysine (α-acetyl lysine) (α-AcK), α-FLAG or α-HA antibodies.

[3] = tested on: natural thymus-derived Treg cells; assay: Ex vivo expansion of natural Tregs from GFP-Foxp3 knock-in mice, flow cytometry of GFP and western blot; assay type: cell-based, mouse
Method: To test the effect of Ex-527 in natural thymus-derived Treg cells, GFP+ cells were isolated from GFP-Foxp3 knock-in mice, in which green fluorescent protein (GFP) is expressed as a fusion protein with FoxP3. Total CD4+ T cells were isolated from spleen and lymph nodes of these mice, and GFP+ T cells were sorted with >95% purity. GFP+ T cells were expanded by anti-CD3/CD28 beads and IL-2 for 5 days when Ex-527 or dimethylsulfoxide (DMSO) was added. Two days later, 75% of cells were GFP-positive regardless whether Ex-527 was added or not; however, the MFI of GFP was increased in Ex-527-treated cells (FIG. 12B, day 7). 7 days later, only 5% of cells remained GFP-positive in control-treated cells versus 45% in Ex-527-treated cultures (FIG. 12B, day 12). In addition, the […] of FoxP3 remained higher in Ex-527-treated cells versus control-treated cells (387 versus 263). […] No FoxP3 expression was detected from either GFP-negative cells or cells expanded in the absence of Ex-527 (FIG. 12B). […] Thus, SIRT1 inhibitors, e.g., Ex-527, can be used to maximize ex vivo or in vivo expansion of Tregs for therapeutic purposes.
FIGS. 12A and 12B. Inhibition of SIRT1 activity by Ex-527 promotes differentiation of iTreg cells and FoxP3 expression in nTreg cells. (A) Intracellular flow cytometry (% FoxP3+ cells and MFI) of FoxP3 in induced Tregs treated during differentiation with Ex-527 (50 μM) or DMSO as control. Shown are averages of three independent experiments (mean±SD). (B) Flow cytometry of GFP in natural Treg populations isolated from GFP-FoxP3 knock-in mice, in which GFP is expressed as a fusion protein with FoxP3. GFP+ nTregs were expanded by α-CD3/CD28 beads and hIL-2 (2000 U/ml) for 5 days. Cells were further cultured with either DMSO or Ex-527 for additional 2 and 7 days and FoxP3 expression was analyzed as in (A). Western blot analysis of FoxP3 in cell lysates from GFP−, GFP+, and GFP+ cultures expanded as described in the presence of DMSO or EX-527.

[4] = tested on: naïve CD4+ T cells undergoing differentiation into iTreg cells; assay: Intracellular flow cytometry of FoxP3 in naïve CD4+ T cells differentiating into iTreg cells; assay type: cell-based, mouse
Method: To gain insight into the role of SIRT1 in Treg biology, SIRT1 protein expression during ex vivo Treg differentiation was analyzed. Naïve CD4^+ T cells (CD4+CD25-CD69-CD44-) were isolated from mouse spleen and lymph nodes and were activated by anti-CD3/CD28 antibodies alone or in combination with cytokines driving differentiation into T helper (Th) 1, Th2 or induced Treg (iTreg) cells. While SIRT1 expression was increased upon CD3/CD28 activation, it was decreased after T cell differentiation, most noticeably in iTregs (FIG. 9A, lane 5).
To test whether SIRT1 plays a role in iTreg differentiation, SIRT1 was overexpressed during iTreg differentiation. Activated CD4+ cells were infected with bicistronic retroviral vectors expressing SIRT1 and the Thy1.1 surface marker (MSCV-SIRT1-Thy1.1) or a control vector expressing Thy1.1 alone (MSCV-Thy1.1). Cell were further differentiated into Tregs in the presence of recombinant human TGF-β and recombinant human IL-2 as previously described (Fu et al., 2004). After 3 days, cells were stained for surface Thy1.1 and intracellular FoxP3 and analyzed by flow cytometry. […] Cells were cultured 3 more days in IL-2 alone and were reanalyzed at day 6 after infection. Both, the number of FoxP3^+/Thy1.1^+ cells and FoxP3 MFI were decreased in SIRT1-expressing cells (FIG. 9B). The opposite result was observed when SIRT1 was knocked down during iTreg differentiation using lentiviral shRNA vectors.
To test the effect of Ex-527 on FoxP3 expression in […] FoxP3-expressing cells, Ex-527 was added to naïve CD4+ T cells undergoing differentiation into iTreg cells. The number of FoxP3-expressing cells increased up to 3-fold in the presence of Ex-527 as compared to cells treated with the drug vehicle alone (FIG. 12A). […]
FIGS. 12A and 12B. […] (B) Flow cytometry of GFP in natural Treg populations isolated from GFP-FoxP3 knock-in mice, in which GFP is expressed as a fusion protein with FoxP3. […] Cells were further cultured with either DMSO or Ex-527 for additional 2 and 7 days and FoxP3 expression was analyzed as in (A). […]

[5] = day 7 (two days after addition)
[6] = 50 μM during iTreg differentiation

O=C(Nc1ccccc1-c1cn2c(CN3CC[C@@H](O)C3)csc2n1)c1ccc2ccccc2c1 [SRT2183]
IL-2 protein in Tat expressing cells (Jurkat T cells; 5 μM): suppressed the production of IL-2 protein | IL-2 protein in control cells (Jurkat T cells; 5 μM): slight increase in IL-2 protein | IL-2 protein in control and Tat expressing cells (Jurkat T cells; 0.2 and 1 μM): caused increases in IL-2 protein

CC(/C=C/C(=O)NO)=C\[C@@H](C)C(=O)c1ccc(N(C)C)cc1 [trichostatin A]
expression of FLAG-AML1/Runx1 ([1]; 293 T cells): increased both FoxP3 and AML1/Runx1 expression | FoxP3 protein expression ([1]; 293 T cells): increased both FoxP3 and AML1/Runx1 expression | acetylation levels of FoxP3 [2]: hyperacetylation | acetylation of AML1/Runx1 [2]: increased to the same extent

NC(=O)C1CCCc2c1[nH]c1ccc(Cl)cc21 (centres unmarked) [Ex-527, 6-chloro-2,3,4,9-tetrahydro-1H-carbazole-1-carboxamide]
FoxP3 mRNA levels ([1]; 293 T cells): No effect | expression of K31R mutant FLAG-FoxP3 ([1]; 293 T cells, 50 μM): increased expression of the K31R mutant to comparable levels as the wild type FoxP3 protein | expression of K262/267R double mutant FLAG-FoxP3 ([1]; 293 T cells, 50 μM): could not further increase | increase of expression of K262R and K267R mutant FLAG-FoxP3 ([1]; 293 T cells, 50 μM): less visible | expression of FLAG-AML1/Runx1 ([1]; 293 T cells): unchanged | FoxP3 protein expression ([1]; 293 T cells): increased FoxP3 protein expression to a similar extent as nicotinamide | wild type FoxP3 protein expression after cycloheximide ([1]; 4 h of CHX treatment): stabilized FoxP3 protein expression | 3KR mutant FoxP3 protein expression after cycloheximide ([1]; 4 hour-time point of CHX treatment): no further stabilization | GFP-positive cells [3, 5]: 75% | MFI of GFP [3, 5]: increased | FoxP3 expression by western blot analysis ([3]; day 12): remained visible | MFI of FoxP3 ([3]; day 12): 387 | GFP-positive cells ([3]; day 12 (7 days after addition)): 45% | increase of mean fluorescent intensity (MFI) of FoxP3 expression [4, 6]: up to 2 fold | increase of number of FoxP3-expressing cells vs drug vehicle [4, 6]: up to 3 fold | FoxP3 mRNA levels in iTreg cells ([4]; during iTreg differentiation): no effect
